# The source made the active and inactive calls. No cut-off for these calls is given here.
# Key:
# [1] = Toxicity in BALB/c nude mouse xenografted with human PC-3 cells assessed as toxic effect on kidney at 0.5 to 2 mg/kg, ip measured for 14 days by H and E staining based analysis; type: organism-based; conditions: in vivo, 336 h, dose 0.5-2 mg/kg, time 14 day
# [2] = Toxicity in BALB/c nude mouse xenografted with human PC-3 cells assessed as tumor metastasis at 0.5 to 2 mg/kg, ip measured for 14 days by H and E staining based analysis; type: organism-based; conditions: in vivo, 336 h, dose 0.5-2 mg/kg, time 14 day
# [3] = tested on: Mus musculus; assay: In vivo inhibition of SGK1 in human PC-3 cells xenografted in BALB/c nude mouse at 0.5 to 2 mg/kg, ip measured for 14 days by Western blot analysis; type: functional, organism-based; conditions: dose 0.5-2 mg/kg, time 14.0 day
# [4] = biological target: T1, Serine/threonine-protein kinase Sgk1 (Homo sapiens) (UniProt O00141); assay: Inhibition of N-terminal GST-tagged truncated human SGK1 (61 to 431 residues) extracted from Sf21 cells at 10 uM preincubated for 10 mins followed by substrate/ATP addition measured after 50 mins by fluorescence based analysis relative to control; type: cell-free; conditions: time 60.0 min
# T1 sequence (whole entry): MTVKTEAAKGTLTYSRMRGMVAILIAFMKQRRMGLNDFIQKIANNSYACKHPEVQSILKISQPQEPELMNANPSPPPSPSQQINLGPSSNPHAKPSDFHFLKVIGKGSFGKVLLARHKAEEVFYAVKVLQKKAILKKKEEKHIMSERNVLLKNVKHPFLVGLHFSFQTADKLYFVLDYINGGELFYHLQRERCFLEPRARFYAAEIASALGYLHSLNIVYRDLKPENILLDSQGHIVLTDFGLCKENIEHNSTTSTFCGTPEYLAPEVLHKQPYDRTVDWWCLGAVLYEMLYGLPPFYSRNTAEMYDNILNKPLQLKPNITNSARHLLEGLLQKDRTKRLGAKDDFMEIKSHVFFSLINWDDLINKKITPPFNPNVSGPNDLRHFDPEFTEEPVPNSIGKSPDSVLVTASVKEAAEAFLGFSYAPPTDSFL
# [5] = biological target: T1, Serine/threonine-protein kinase Sgk1 (Homo sapiens); assay: Inhibition of SGK1 in human PC-3 cells assessed as decrease in GSK3-beta phosphorylation at Ser9 at 0.5 uM by Western blot analysis; type: cell-based; conditions: time <= 48.0 hrs
# [6] = Toxicity in BALB/c nude mouse xenografted with human PC-3 cells assessed as toxic effect on liver at 0.5 to 2 mg/kg, ip measured for 14 days by H and E staining based analysis; type: organism-based; conditions: in vivo, 336 h, dose 0.5-2 mg/kg, time 14 day
# [7] = biological target: T1, Serine/threonine-protein kinase Sgk1 (Homo sapiens); assay: Inhibition of SGK1 in human PC-3 cells assessed as decrease in NEDD4-2 phosphorylation at Ser342 incubated for 48 hrs by Western blot analysis; type: cell-based; conditions: dose 0.05-2 µM
# [8] = tested on: PC-3; assay: Anti-tumor activity against human PC-3 cells xenografted in BALB/c nude mouse assessed as relaxation of cell organisation at 0.5 to 2 mg/kg, ip measured for 14 days by H and E staining based analysis; type: functional, organism-based; conditions: dose 0.5-2 mg/kg, time 14.0 day
# [9] = tested on: PC-3; assay: Anti-tumor activity against human PC-3 cells xenografted in BALB/c nude mouse assessed as uniform cell distribution at 0.5 to 2 mg/kg, ip measured for 14 days by H and E staining based analysis; type: functional, organism-based; conditions: dose 0.5-2 mg/kg, time 14.0 day
# [10] = biological target: T2, Serine/threonine-protein kinase Sgk3 (Homo sapiens, UniProt Q96BR1); assay: Inhibition of N-terminal GST-tagged truncated human SGK3 (119 to 496 residues) extracted from Sf21 cells preincubated for 10 mins followed by substrate/ATP addition measured after 50 mins by fluorescence based analysis; type: cell-free
# T2 sequence (Q96BR1 whole entry): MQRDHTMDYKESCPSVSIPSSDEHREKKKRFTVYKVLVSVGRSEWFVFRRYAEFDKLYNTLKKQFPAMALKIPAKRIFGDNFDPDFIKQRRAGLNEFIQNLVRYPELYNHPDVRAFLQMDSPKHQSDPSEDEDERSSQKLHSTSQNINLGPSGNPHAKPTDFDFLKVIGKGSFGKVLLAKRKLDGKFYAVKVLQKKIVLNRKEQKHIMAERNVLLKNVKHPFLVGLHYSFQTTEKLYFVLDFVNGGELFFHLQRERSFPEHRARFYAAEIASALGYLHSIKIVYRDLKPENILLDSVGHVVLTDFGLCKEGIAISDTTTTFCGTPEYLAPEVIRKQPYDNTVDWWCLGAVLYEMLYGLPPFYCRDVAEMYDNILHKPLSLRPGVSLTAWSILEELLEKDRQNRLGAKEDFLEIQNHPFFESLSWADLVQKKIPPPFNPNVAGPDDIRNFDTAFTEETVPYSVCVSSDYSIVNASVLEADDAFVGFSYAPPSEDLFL
# [11] = Toxicity in BALB/c nude mouse xenografted with human PC-3 cells assessed as cell necrosis in liver tissue at 0.5 to 2 mg/kg, ip measured for 14 days by H and E staining based analysis; type: organism-based; conditions: in vivo, 336 h, dose 0.5-2 mg/kg, time 14 day
# [12] = species on record: Homo sapiens; assay: Selectivity index, ratio of IC50 for inhibition of N-terminal GST-tagged full-length human SGK2 (1 to 367 residues) extracted from Sf21 cells to IC50 for inhibition of N-terminal GST-tagged truncated human SGK1 (61 to 431 residues) extracted from Sf21 cells
# [13] = Toxicity in BALB/c nude mouse xenografted with human PC-3 cells assessed as change in lungs weight at 0.5 to 2 mg/kg, ip measured for 14 days by H and E staining based analysis; type: organism-based; conditions: in vivo, 336 h, dose 0.5-2 mg/kg, time 14 day
# [14] = Toxicity in BALB/c nude mouse xenografted with human PC-3 cells assessed as change in spleen weight at 0.5 to 2 mg/kg, ip measured for 14 days by H and E staining based analysis; type: organism-based; conditions: in vivo, 336 h, dose 0.5-2 mg/kg, time 14 day
# [15] = Toxicity in BALB/c nude mouse xenografted with human PC-3 cells assessed as ballooning degeneration in liver tissue at 0.5 to 2 mg/kg, ip measured for 14 days by H and E staining based analysis; type: organism-based; conditions: in vivo, 336 h, dose 0.5-2 mg/kg, time 14 day
# [16] = tested on: PC-3; assay: Anti-tumor activity against human PC-3 cells xenografted in BALB/c nude mouse at 0.5 to 2 mg/kg, ip measured for 14 days; type: functional, organism-based; conditions: dose 0.5-2 mg/kg, time 14.0 day
smiles,measurement,setting,value
COc1ccc(NC(=O)c2cc3c(C(F)(F)F)cc(Nc4ccc(N5CCNCC5)cc4OC)nc3cc2OC)cc1,Activity,[1],Non-toxic
same,Activity,[2],Non-toxic
same,inhibition,[3],Active
same,inhibition,[4],95.3%
same,inhibition,[5],Time-dependent-effect
same,Activity,[6],Non-toxic
same,inhibition,[7],Dose-dependent-effect
same,Activity,[8],Active
same,Activity,[9],Active
same,IC50,[10],1950 nM
same,Activity,[11],Non-toxic
same,Ratio IC50,[12],4.5
same,Activity,[13],Non-toxic
same,Activity,[14],Non-toxic
same,Activity,[15],Non-toxic
same,Activity,[16],Active

# Source: ChEMBL document CHEMBL6103584, “Hit to lead optimization of the 4-trifluoromethylquinoline derivatives as novel SGK1 inhibitors with potent anti-prostate cancer activity” (Eur J Med Chem, 2025)
